Literature values, collected in paper PMC6858927 (Investigational new drugs, 2019).

System: AML cells with TKD mutants
Conditions: cited from earlier work

Structure (SMILES) | sensitivity of AML cells with TKD mutants
CC(C)(C)c1cc(NC(=O)Nc2ccc(-c3cn4c(n3)sc3cc(OCCN5CCOCC5)ccc34)cc2)no1 [quizartinib] | highly resistant
CNC(=O)c1cc(Oc2ccc(NC(=O)Nc3ccc(Cl)c(C(F)(F)F)c3)cc2)ccn1 [sorafenib] | highly resistant
